A short description of the data set: Dissolution / solubility in water over time, crystalline material compared with solid dispersion. The data set is classed as physicochemical.

SMILES strings stand for the structures. Converted amounts (≈) assume the structure as drawn.

`Cc1ccc(C)c(OCCCC(C)(C)C(=O)O)c1` [Crystalline, 5-(2,5-dimethylphenoxy)-2,2-dimethylpentanoic acid] registered a solubility at 1 h (Time: One hour) of 14.7 µg/mL (≈ 58.8 µM). The concentration in solution (Time: Twenty Hours) (solubility at 20 h) was 21.3 µg/mL (≈ 85.1 µM). The solubility at 24 h (Time: Twenty-four Hours) is 22.4 µg/mL (≈ 89.5 µM). In addition, the concentration in solution (Time: Two Hours) (solubility at 2 h) was 18.4 µg/mL (≈ 73.6 µM).

As usually defined, the solubility is the dissolved amount per volume that the medium holds. A low value points to little dissolved substance.

The values are drawn from patent EP0462066A1, “Amorphous gemfibrozil” (WARNER-LAMBERT COMPANY, priority 1990, dated 1991).
